Source: PubChem BioAssay (NCI)
Where “and” joins values, the source holds several entries; their conditions need not be identical. Identical values can stand only once.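 These data come from cells grown in 96-well plates and exposed to compound for 48 hours at five concentrations. GI50: concentration for 50% inhibition of growth. The concentration for full growth arrest is given as TGI.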

Legend:
Test in all cases: inhibition of tumour cell growth, NCI panel, 48 h
[1] = system: SR leukemia
[2] = system: IGROV1 ovarian
[3] = system: UACC-62 melanoma
[4] = system: SK-MEL-2 melanoma
[5] = system: PC-3 prostate
[6] = system: HS 578T breast
[7] = system: NCI-H522 lung
[8] = system: ACHN renal
[9] = system: NCI-H226 lung
[10] = system: SK-MEL-5 melanoma

O=C(O)c1cccc(CC(Br)C(=O)O)c1 (configuration not stated)
TGI [1]: > 100 µM
TGI [2]: > 100 µM
TGI [3]: > 100 µM
TGI [4]: > 100 µM
TGI [5]: > 100 µM
TGI [6]: > 100 µM
TGI [7]: > 100 µM
TGI [8]: > 100 µM
TGI [9]: > 100 µM
TGI [10]: > 100 µM

C/C(=C\c1c[nH]c2ccccc12)[N+](=O)[O-]
GI50 [1]: 1.15 µM
TGI [1]: 4.25 µM
GI50 [2]: 5.43 µM
TGI [2]: 19.2 µM
GI50 [3]: 4.04 µM
TGI [3]: 15.9 µM
GI50 [4]: 6.24 µM
TGI [4]: 20.8 µM
GI50 [5]: 4.07 µM
TGI [5]: 15.4 µM
GI50 [6]: 7.61 µM
TGI [6]: 43.8 µM
GI50 [7]: 3.19 µM
TGI [7]: 11.6 µM
GI50 [8]: 4.36 µM
TGI [8]: 16.6 µM
GI50 [9]: 13.3 µM
TGI [9]: 30.6 µM
GI50 [10]: 5.8 µM
TGI [10]: 19.2 µM

COc1cc(C(=O)n2nc(N3CCN(C)CC3)c3cc(N)ccc32)cc(OC)c1OC
GI50 [1]: 3.64 µM
TGI [1]: 53.3 µM
GI50 [2]: 4.88 µM
TGI [2]: > 100 µM
GI50 [3]: 2.78 µM
TGI [3]: 17.7 µM
GI50 [4]: 10.4 µM
TGI [4]: 67.5 µM
GI50 [5]: 17.7 µM
TGI [5]: > 100 µM
GI50 [6]: 12.8 µM
TGI [6]: > 100 µM
GI50 [7]: 2.01 µM
TGI [7]: 8.87 µM
GI50 [8]: 4.2 µM
TGI [8]: > 100 µM
GI50 [9]: 5.61 µM
TGI [9]: 34.5 µM
GI50 [10]: 3.03 µM
TGI [10]: 9.06 µM

C/C(=C\c1ccn(-c2ccc(N)cc2)n1)[C@@H]1C[C@@H]2O[C@]2(C)CCC[C@H](C)[C@H](O)[C@@H](C)C(=O)C(C)(C)[C@@H](O)CC(=O)O1
GI50 [1]: 0.027 µM
TGI [1]: > 50 µM
GI50 [2]: 0.494 µM
TGI [2]: > 50 µM
GI50 [3]: 0.157 µM
TGI [3]: > 50 µM
GI50 [4]: 0.0758 µM
TGI [4]: > 50 µM
GI50 [5]: 0.0313 µM
TGI [5]: > 50 µM
GI50 [6]: 0.0863 µM
TGI [6]: > 21.6 µM
GI50 [7]: 0.0356 µM
TGI [7]: 0.342 µM
GI50 [8]: 0.161 µM
TGI [8]: > 50 µM
GI50 [9]: > 50 µM
TGI [9]: > 50 µM
GI50 [10]: 0.0308 µM
TGI [10]: > 50 µM

COc1ccc(Nc2ccnc(NCCCNc3ccnc4cc(Cl)ccc34)n2)cc1
GI50 [1]: 0.254 µM
TGI [1]: 0.912 µM
GI50 [2]: 1.48 µM
TGI [2]: 4.14 µM
GI50 [3]: 1.4 µM
TGI [3]: 2.96 µM
GI50 [4]: 1.61 µM
TGI [4]: 3.21 µM
GI50 [5]: 1.63 µM
TGI [5]: 11.2 µM
GI50 [6]: 1.46 µM
TGI [6]: 3.83 µM
GI50 [7]: 1.62 µM
TGI [7]: 3.67 µM
GI50 [8]: 1.18 µM
TGI [8]: 2.42 µM
GI50 [9]: 1.92 µM
TGI [9]: 4.55 µM
GI50 [10]: 0.387 µM
TGI [10]: 1.46 µM

Nc1ccn([C@@H]2C=C(CO)[C@@H](O)[C@H]2O)c(=O)n1
GI50 [1]: 0.05 µM
TGI [2]: 222 µM and > 625 µM
TGI [3]: 135 µM and 224 µM
TGI [4]: 346 µM and 301 µM
TGI [5]: 500 µM
GI50 [6]: 4.56 µM
GI50 [7]: 0.0242 µM
GI50 [8]: 0.05 µM
TGI [8]: 500 µM
GI50 [9]: 0.501 µM
TGI [9]: 493 µM
TGI [10]: 406 µM and 379 µM

CCN(CC)CCOc1cc2c(C(=O)OC)c(C)oc2cc1C(C)=O
GI50 [1]: 2.58 µM
TGI [1]: 6.72 µM
GI50 [2]: 8.53 µM
TGI [2]: 33 µM
GI50 [3]: 9.4 µM
TGI [3]: 21.5 µM
GI50 [4]: 33.3 µM
TGI [4]: > 100 µM
GI50 [5]: 3.97 µM
TGI [5]: 13.7 µM
GI50 [6]: 13.4 µM
TGI [6]: 31.4 µM
GI50 [7]: 13.2 µM
TGI [7]: > 100 µM
GI50 [8]: 5.65 µM
TGI [8]: 18.3 µM
GI50 [9]: 11.4 µM
TGI [9]: 25.2 µM
GI50 [10]: 6.62 µM
TGI [10]: 19 µM
